The values that follow come from US7642400B2, “Protein kinase C iota” (Mayo Foundation for Medical Education and Research, priority 2004, dated 2010).

For experiment [1], the system named is Rac1 activity in A549 cells. Briefly: Rac1 activity assay (affinity isolation of GTP-bound Rac1) in A549 cells. In kind it is cell-based, human. The protocol: Rac 1 Activity Assays: Rac1 activity in A549 and H1299 cell transfectants was assessed by affinity isolation of GTP-bound Rac1 using binding domains of PAK as described previously (Sander et al., J. Cell Biol., 143(5):1385-98 (1998)). Briefly, cells were lysed in lysis buffer (50 mM Tris-HCl pH 7.5, 150 mM NaCl, 20 mM MgCl2, 5 mM EGTA, 10% glycerol, 1% Triton X-100, 1% NP-40, 25 mM NaF, 1 mM phenylmethylsulfonyl fluoride, 1 mM sodium orthovanadate, 10 μg/ml leupeptin, 10 μg/ml aprotinin) at 4° C. for 5 min. Cellular debris was removed by centrifugation at 20,000×g for 5 min, and supernatants were transferred to new tubes containing 20 μl of GST-p21-binding domain of PAK1 (PAK1-PBD) coupled to agarose beads (Upstate). An aliquot of each supernatant was reserved to determine total Rac1 and actin expression by immunoblot analysis. Following a 30-minute incubation at 4° C., the agarose beads were collected by centrifugation and washed three times in wash buffer (50 mM Tris-HCl pH 7.5, 150 mM NaCl, 20 mM MgCl2, 5 mM EGTA, 10% glycerol, 1% Triton X-100, 1% NP-40, 25 mM NaF, 1 mM phenylmethylsulfonyl fluoride, 1 mM sodium orthovanadate, 10 μg/ml leupeptin, 10 μg/ml aprotinin). Bound polypeptides were solubilized by the addition of 30 μl of SDS sample buffer, resolved by SDS-PAGE, and subjected to immunoblot analysis for Rac1. An equivalent aliquot of the total cell lysate was subjected to immunoblot analysis to determine total Rac1 expression.
Rac 1 Activity Assays: A549 cells were incubated with the indicated concentration of ATG for one hour prior to analysis. Rac1 activity in A549 cells was assessed by affinity isolation of GTP-bound Rac1 using binding domains of PAK as described elsewhere (Sander et al., J. Cell Biol., 143:1385-98 (1998)). Briefly, cells were lysed in lysis buffer (50 mM Tris-HCl pH 7.5, 150 mM NaCl, 20 mM MgCl2, 5 mM EGTA, 10% glycerol, 1% Triton X-100, 1% NP-40, 25 mM NaF, 1 mM phenylmethylsulfonyl fluoride, 1 mM sodium orthovanadate, 10 μg/ml leupeptin, and 10 μg/ml aprotinin) at 4° C. for 5 min. […]

A further experiment concerns A549 cells. Put plainly: Soft agar growth assay (anchorage-independent growth) of A549 cells. Conditions: A549 cells, FIG. 20. In kind it is cell-based, human. On the procedure: (§1) Anchorage-independent growth was assayed by the ability of cells to form colonies in soft agar. The bottom agar consisted of growth medium containing 10% FBS and 0.75% agarose in 60-mm tissue culture dishes. Nine hundred cells were resuspended in growth medium containing 10% FBS and 0.75% agarose, and plated on top of the bottom agar. The cells were incubated at 37° C. in 5% CO2. Cell colonies were visualized and quantified under a dissecting microscope (Olympus) after 4-6 weeks in culture.
as §1, with “Soft Agar Growth Assays: Anchorage-independent growth” for “Anchorage-independent growth”, “and 0.75% agarose and plated” for “and 0.75% agarose, and plated”, “bottom agar. ATG was added at the indicated concentration to both bottom and top agar solutions. The cells” for “bottom agar. The cells”

With `OC[C@H]1O[C@H]([S-])[C@H](O)[C@@H](O)[C@@H]1O.[Au+]` [Aurothioglucose], the Rac1 activity result in experiment [1] (A549 cells incubated with ATG for one hour, FIG. 19) was “decreased Rac1 activity”. For the same molecule, the “dose dependence of Rac1 activity” value in experiment [1] (A549 cells, less Rac1 activity as ATG concentrations increased) is on record as “dose-dependent effect on Rac1 activity”. Besides, the soft agar growth entry in the experiment on A549 cells (10 μM) and with A549 cells (100 μM) was “decreased soft agar growth” in each case.
